From PMC11475281, “A Novel Liver Cancer-Selective Histone Deacetylase Inhibitor Is Effective against Hepatocellular Carcinoma and Induces Durable Responses with Immunotherapy” (ACS Pharmacology & Translational Science, 2024)
Where two headings read alike, the source gives them in different places.

Legend:
HDAC2 = HDAC2 (Homo sapiens, UniProt Q92769); test: HDAC isoform inhibition (BPS Bioscience)
HDAC6 = target: T1, HDAC6 (Homo sapiens, UniProt Q9UBN7); test: HDAC isoform inhibition (BPS Bioscience)
T1 sequence (Q9UBN7 1-1215): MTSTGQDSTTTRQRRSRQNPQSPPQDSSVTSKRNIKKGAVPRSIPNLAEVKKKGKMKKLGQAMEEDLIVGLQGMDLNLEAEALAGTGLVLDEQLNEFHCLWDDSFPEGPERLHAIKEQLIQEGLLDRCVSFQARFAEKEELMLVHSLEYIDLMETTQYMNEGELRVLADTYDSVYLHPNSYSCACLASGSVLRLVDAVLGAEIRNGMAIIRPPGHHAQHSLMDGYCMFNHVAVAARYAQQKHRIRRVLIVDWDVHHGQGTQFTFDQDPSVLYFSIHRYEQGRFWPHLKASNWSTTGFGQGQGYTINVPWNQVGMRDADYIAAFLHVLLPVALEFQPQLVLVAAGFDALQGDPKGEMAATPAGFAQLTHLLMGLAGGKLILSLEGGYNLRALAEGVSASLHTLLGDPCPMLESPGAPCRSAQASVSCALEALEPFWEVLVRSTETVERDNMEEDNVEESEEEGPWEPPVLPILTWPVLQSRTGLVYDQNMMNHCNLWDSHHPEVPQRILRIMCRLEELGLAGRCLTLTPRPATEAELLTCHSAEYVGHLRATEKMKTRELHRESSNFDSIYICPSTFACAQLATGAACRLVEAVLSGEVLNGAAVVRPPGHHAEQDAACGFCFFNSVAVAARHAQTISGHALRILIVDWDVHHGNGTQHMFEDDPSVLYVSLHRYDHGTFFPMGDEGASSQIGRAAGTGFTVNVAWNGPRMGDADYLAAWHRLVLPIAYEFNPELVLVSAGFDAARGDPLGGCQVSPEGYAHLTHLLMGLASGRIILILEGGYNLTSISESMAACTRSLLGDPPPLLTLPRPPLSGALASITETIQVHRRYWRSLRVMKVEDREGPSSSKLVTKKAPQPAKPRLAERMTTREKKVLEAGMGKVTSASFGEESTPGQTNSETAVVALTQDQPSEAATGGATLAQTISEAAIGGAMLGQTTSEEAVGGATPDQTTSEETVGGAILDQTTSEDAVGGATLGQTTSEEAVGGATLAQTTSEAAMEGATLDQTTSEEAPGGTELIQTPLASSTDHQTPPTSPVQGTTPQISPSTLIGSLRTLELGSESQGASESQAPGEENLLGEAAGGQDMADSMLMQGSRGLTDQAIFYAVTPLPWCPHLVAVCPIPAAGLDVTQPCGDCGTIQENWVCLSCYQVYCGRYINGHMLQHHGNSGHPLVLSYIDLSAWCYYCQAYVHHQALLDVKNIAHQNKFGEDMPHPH

VERO cells = test: Immunoblotting of cleaved Caspase 3; type: cell-based; conditions: same concentrations as in Hep-G2
Protocol: Figure 3 Effects of STR-V-53 on intracellular markers of HDAC inhibition, antitumor immune response, and apoptosis. (a) STR-V-53 upregulates the levels of acetylated H4 and tubulin in Hep-G2 cells. Hep-G2 cells were treated with DMSO or 0.1% DMSO solution of SAHA (1.25 μM) and STR-V-53 (1.25 μM, 2.5 μM). Cells were treated for 5 h before lysis. Data are from two independent experiments. (b) STR-V-53 upregulates PD-L1 and downregulates PD-1 expressions in Hep-G2 cells. Cells were treated with DMSO or 0.1% DMSO solution of SAHA (5 μM and 10 μM) and STR-V-53 (10 and 20 μM) for 24 h. (c) STR-V-53 and SAHA caused upregulation of the levels of CD54 in the Hep-G2 cell line. Cells were treated with DMSO or 0.1% DMSO solution of SAHA (5 and 10 μM) and STR-V-53 (5, 10, and 20 μM) for 24 h. […] Cells were treated with DMSO or 0.1% DMSO solution of SAHA (5 μM) and STR-V-53 (10 and 20 μM).

HDAC8 = target: T2, HDAC8 (Homo sapiens, UniProt Q9BY41); test: HDAC isoform inhibition (BPS Bioscience)
T2 sequence (Q9BY41 1-377): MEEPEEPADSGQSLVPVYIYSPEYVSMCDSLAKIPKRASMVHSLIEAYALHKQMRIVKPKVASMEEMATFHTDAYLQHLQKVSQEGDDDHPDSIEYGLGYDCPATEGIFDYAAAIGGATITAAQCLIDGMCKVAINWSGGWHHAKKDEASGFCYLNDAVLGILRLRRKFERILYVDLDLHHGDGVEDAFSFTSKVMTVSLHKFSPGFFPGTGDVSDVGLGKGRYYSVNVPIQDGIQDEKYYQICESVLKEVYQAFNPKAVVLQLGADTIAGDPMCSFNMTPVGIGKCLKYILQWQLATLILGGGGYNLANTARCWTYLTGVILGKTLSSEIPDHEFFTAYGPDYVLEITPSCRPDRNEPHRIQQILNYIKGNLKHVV

Chain of HDAC2 (Q92769 whole entry, canonical isoform): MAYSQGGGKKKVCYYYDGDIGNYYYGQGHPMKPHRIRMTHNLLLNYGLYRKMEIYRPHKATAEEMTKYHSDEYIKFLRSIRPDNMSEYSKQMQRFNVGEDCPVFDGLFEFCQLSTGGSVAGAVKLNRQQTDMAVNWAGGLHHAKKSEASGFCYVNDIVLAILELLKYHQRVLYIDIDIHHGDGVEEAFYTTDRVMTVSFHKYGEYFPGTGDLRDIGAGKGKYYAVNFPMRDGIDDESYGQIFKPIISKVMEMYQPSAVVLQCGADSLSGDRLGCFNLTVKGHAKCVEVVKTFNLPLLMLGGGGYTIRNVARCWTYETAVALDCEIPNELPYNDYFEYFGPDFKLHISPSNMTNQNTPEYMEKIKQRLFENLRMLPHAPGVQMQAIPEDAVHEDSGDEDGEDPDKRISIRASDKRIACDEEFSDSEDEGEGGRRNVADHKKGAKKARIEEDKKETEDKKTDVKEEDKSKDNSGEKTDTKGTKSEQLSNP

SMILES	IC50 (HDAC2) [nM]	IC50 (HDAC6) [nM]	Caspase 3 cleavage (VERO cells)	IC50 (HDAC8) [nM]	IC50 (HDAC2; read-out: HDAC2 IC50, Table S1) [nM]	IC50 (HDAC6; read-out: HDAC6 IC50, Table S1) [nM]	IC50 (HDAC8; read-out: HDAC8 IC50, Table S1) [nM]
O=C(CCCCCCn1cc(-c2ccc(O[C@H]3O[C@H](CO)[C@@H](O)[C@H](O)[C@H]3O)cc2)nn1)NO [STR-V-53]	60.1	3.43	did not induce cleavage of Caspase 3	843			
O=C(CCCCCCC(=O)Nc1ccccc1)NO [SAHA, vorinostat, reference compound]			induced cleavage of Caspase 3				
O=C(CCCCCCn1cc(-c2ccc(O[C@@H]3O[C@H](CO)[C@@H](O)[C@H](O)[C@H]3O)cc2)nn1)NO [STR-I-195]			did not induce cleavage of Caspase 3		29.1	2.51	464
O=C(CCCCCCn1cc(-c2ccc3cc(O[C@H]4O[C@H](CO)[C@@H](O)[C@H](O)[C@H]4O)ccc3c2)nn1)NO [STR-V-114]					61.5	4.5	2130
